Structures can show the parent of a compound that is named as a salt.
Columns and labels:
[1] = molecular target: T1, ΔF508-CFTR (Homo sapiens, UniProt P13569, DEL508-508); type: cell-based; set-up: which was then ligated into full length pNUT-CFTR linearized using Hpa1 and Pml1; expressed in transfected cells
Procedure, shortened: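 BHK cells stably expressing 3HA-tagged ΔF508-CFTR (tags in fourth extracellular loop) treated with compound at 20 μM final for 24 h at 37° C. Surface ΔF508-CFTR measured on fixed, non-permeabilised cells by anti-HA/FITC immunofluorescence (488/510 nm), relative to untreated-well background; hits retested in duplicate, intrinsically fluorescent compounds excluded.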

[2] = molecular target: T2, ΔF508-CFTR (Mus musculus, UniProt P26361, DEL508-508); experiment: salivary secretion assay in ΔF508-CFTR mice; type: in vivo
T2 construct: from tissue; host or cells: ileal mucosa of homozygous ΔF508 mice (A11 ex vivo, A12 after gavage); salivary secretion in the living mouse (A13)
Description: The procedure followed those recently described by Best & Quinton (Best and Quinton, 2005). Homozygous Δ508-CFTR mice (CFTR^tm1 Eur) and wild-type mice of the same strain were 10-12 weeks old and weighed 20-25 g. They were fed once a day by gavage with saline containing glafenine (50 mg/kg) or vehicle alone (0.1% DMSO) for 2 days. The mice were anaesthetized with ketamine and diazepam on the day of the experiment, then pretreated with a subcutaneous injection of 1 mM atropine into the left cheek. Small strips of Whatman filter paper were placed inside the previously injected cheek for ˜4 min to absorb any salivary secretions. A solution containing 100 μM isoprenaline and 1 mM atropine was then injected into the left cheek at the same site to induce secretion at time zero and the filter paper was replaced every minute for 30 minutes. Each piece of filter paper was immediately placed and sealed in a pre-weighed vial and the time of removal was recorded. The rate of salivary secretion per min and total amount were normalized to the mass of the mouse in grams.

[3] = molecular target: T1, ΔF508-CFTR; experiment: immunoblot and densitometry of mature band C, BHK cells expressing ΔF508-CFTR; type: cell-based; set-up: which was then ligated into full length pNUT-CFTR linearized using Hpa1 and Pml1; expressed in transfected cells; details: 10 μM, 24 h
Description: Cell lysates were quantitated by Bradford assay (BioRad) and separated by SDS-PAGE (6% polyacrylamide gels) and analyzed by Western blotting. Western blots were blocked using 5% skimmed milk in PBS, then probed overnight at 4° C. with a primary anti-CFTR antibody at a dilution of 1:1000 monoclonal mouse antibody (clone M3A7, Chemicon). The blots were washed four times in PBS before the addition of the secondary HRP-conjugated anti-mouse antibody, at a dilution of 1:5000 (Amersham) for one hour at room temperature. The blots were washed five times in PBS and probed for chemiluminescence (Pierce). All samples were run with equal protein loading as determined using the Bradford assay (Biorad). Densitometry of the immunoblots was performed using the ImageJ program (National Institutes of Health).
Total protein was quantified in cell lysates using the Bradford assay (BioRad, Hercules, Calif.), separated using SDS-PAGE (6% polyacrylamide gels), and analyzed by Western blotting as described previously (Robert et al., 2007). Western blots were blocked with 5% skimmed milk in PBS and probed overnight at 4° C. with a monoclonal primary anti-CFTR antibody (clone M3A7, Chemicon, Temecula, Calif.) diluted 1:1000. The blots were washed four times in PBS before adding the secondary HRP-conjugated anti-mouse antibody at a dilution of 1:5000 (Amersham, Piscataway, N.J.) for one hour at room temperature, then washed again five times in PBS and visualized using chemiluminescence (Pierce, Rockford, Ill.). The relative intensity of each CFTR glycoform (band B or band C) was estimated by densitometry using the ImageJ software and reported as a percentage of the total CFTR in the same lane (i.e. B+C).

[4] = clinical use; cited from earlier work

T1 sequence (P13569 with tags, fused parts or gaps DEL508-508): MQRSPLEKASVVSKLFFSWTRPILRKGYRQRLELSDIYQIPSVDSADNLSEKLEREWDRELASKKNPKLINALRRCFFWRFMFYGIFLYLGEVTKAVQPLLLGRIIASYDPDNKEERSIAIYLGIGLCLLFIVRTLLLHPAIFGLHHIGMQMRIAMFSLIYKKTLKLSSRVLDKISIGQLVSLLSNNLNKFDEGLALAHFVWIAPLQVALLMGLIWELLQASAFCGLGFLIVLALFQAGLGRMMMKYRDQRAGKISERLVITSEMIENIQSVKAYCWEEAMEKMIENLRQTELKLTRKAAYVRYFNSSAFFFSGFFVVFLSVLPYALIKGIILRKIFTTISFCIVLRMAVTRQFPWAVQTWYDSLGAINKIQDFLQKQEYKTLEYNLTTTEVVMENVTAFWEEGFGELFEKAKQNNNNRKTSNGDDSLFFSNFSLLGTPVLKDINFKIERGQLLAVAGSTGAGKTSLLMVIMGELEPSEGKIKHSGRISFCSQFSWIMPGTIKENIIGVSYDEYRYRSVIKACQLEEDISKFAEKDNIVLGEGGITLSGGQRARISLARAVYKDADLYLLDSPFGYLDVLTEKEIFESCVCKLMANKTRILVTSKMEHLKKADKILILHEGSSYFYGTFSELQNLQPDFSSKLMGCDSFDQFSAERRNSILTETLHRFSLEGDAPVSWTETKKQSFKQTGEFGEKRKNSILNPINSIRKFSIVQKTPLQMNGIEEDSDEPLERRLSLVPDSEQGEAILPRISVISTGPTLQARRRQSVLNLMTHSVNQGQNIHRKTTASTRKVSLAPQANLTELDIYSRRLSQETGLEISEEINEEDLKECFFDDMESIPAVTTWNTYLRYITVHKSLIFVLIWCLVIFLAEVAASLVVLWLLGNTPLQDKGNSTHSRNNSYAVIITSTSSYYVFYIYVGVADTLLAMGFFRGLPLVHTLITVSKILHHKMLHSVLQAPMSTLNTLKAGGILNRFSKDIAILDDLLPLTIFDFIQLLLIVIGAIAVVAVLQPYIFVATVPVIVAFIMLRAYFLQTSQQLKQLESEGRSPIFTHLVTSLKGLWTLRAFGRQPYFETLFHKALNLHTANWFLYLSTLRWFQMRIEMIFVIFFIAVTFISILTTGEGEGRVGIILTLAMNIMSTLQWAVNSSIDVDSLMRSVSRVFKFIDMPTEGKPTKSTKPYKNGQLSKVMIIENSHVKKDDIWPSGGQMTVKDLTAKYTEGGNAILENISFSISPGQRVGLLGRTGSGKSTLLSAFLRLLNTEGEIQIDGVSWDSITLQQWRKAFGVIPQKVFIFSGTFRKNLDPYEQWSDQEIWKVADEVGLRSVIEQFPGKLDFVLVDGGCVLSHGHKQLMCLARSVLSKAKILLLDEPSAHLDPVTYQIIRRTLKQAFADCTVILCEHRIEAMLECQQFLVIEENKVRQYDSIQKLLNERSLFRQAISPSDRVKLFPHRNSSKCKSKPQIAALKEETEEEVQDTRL
T2 sequence (P26361 with tags, fused parts or gaps DEL508-508): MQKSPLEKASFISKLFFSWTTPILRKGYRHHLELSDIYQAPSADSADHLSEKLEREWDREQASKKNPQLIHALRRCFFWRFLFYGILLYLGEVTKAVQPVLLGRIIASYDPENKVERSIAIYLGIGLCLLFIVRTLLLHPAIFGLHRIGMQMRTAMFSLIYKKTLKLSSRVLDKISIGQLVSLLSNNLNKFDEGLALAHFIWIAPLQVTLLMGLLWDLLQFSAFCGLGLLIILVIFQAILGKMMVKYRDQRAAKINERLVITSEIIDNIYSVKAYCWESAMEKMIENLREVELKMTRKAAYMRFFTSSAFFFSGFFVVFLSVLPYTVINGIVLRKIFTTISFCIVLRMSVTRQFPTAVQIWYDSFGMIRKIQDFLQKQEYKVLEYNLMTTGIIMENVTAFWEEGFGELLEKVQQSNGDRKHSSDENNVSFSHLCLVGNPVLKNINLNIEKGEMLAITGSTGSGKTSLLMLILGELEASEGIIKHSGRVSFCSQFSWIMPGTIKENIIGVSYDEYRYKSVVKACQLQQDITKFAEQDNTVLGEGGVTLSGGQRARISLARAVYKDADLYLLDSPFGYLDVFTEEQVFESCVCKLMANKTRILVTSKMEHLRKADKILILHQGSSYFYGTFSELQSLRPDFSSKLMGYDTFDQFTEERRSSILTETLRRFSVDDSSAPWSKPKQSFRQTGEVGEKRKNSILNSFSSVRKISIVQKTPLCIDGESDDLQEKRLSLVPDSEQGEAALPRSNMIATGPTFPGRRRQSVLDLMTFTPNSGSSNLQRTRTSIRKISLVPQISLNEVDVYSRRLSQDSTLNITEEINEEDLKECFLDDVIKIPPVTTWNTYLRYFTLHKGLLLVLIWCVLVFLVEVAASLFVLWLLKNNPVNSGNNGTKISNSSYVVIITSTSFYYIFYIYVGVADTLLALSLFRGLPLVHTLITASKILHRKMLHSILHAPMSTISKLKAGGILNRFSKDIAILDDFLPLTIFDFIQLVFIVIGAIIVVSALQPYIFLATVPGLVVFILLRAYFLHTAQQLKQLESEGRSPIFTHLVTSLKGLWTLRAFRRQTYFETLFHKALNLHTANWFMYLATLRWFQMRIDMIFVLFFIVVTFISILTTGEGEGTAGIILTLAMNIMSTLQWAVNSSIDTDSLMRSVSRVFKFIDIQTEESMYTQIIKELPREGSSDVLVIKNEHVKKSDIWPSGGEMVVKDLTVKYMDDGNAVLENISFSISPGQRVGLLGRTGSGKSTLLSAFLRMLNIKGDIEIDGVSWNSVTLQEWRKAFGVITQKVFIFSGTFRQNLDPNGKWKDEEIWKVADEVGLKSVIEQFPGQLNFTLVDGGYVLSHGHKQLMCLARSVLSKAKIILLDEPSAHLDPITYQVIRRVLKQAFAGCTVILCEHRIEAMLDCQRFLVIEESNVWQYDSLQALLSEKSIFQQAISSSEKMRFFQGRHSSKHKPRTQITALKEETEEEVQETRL

O=C(OCC(O)CO)c1ccccc1Nc1ccnc2cc(Cl)ccc12 (centres unmarked) [Glafenine hydrochloride, 2-[(7-chloro-4-quinolinyl)amino]benzoic acid 2,3-dihydroxypropyl ester]
ΔF508-CFTR surface expression increase, normalized to BHK cells expressing wild-type CFTR ([1]; 10 μM, 24 h, compared with vehicle alone): 40%
hit in screen (class letter) ([1]; Prestwick library, initial corrector assay, BHK cells): W (Medium and weak hits were defined as compounds giving a cell fluorescence signal that was between 2 and 3 or 1 and 2 standard deviations, respectively, above untreated control wells)
hit in screen (score) ([1]; Prestwick library, initial corrector assay, standard deviations above untreated controls): 1.3
restored share of the total salivary response ([2]; 50 mg glafenine per kg): 15%
maximum rate of saliva production relative to WT mice ([2]; 50 mg/kg by gavage, 2 days, isoprenaline with atropine, control CF mice 5%): 15%
band C glycoform as share of the CFTR signal (band B+band C) [3]: approximately 38%
increase of band C glycoform compared to untreated control [3]: 28.4%
concentration achieved clinically in plasma [4]: 10 µM

Source: patent US20110009351A1, “SCREENING ASSAY TO IDENTIFY CORRECTORS OF PROTEIN TRAFFICKING DEFECTS” (Traffick Therepeutics Inc., priority 2007, published 2011)
